Experimental data published in patent US20120094995A1, “2-AZA-BICYCLO[2.2.1]HEPTANE COMPOUNDS AND USES THEREOF” (ASTRAZENECA AB, priority 2009, published 2012).

These molecules were tested against T1, human GlyT1b (Homo sapiens, UniProt P48067) (assay: [3H] Glycine Uptake Assay (SPA) in recombinant hGlyT1b-CHO cells). Conditions: Table 1.
T1 construct: expressed in transfected cells
T1 sequence (P48067 1-652 isoform P48067-3): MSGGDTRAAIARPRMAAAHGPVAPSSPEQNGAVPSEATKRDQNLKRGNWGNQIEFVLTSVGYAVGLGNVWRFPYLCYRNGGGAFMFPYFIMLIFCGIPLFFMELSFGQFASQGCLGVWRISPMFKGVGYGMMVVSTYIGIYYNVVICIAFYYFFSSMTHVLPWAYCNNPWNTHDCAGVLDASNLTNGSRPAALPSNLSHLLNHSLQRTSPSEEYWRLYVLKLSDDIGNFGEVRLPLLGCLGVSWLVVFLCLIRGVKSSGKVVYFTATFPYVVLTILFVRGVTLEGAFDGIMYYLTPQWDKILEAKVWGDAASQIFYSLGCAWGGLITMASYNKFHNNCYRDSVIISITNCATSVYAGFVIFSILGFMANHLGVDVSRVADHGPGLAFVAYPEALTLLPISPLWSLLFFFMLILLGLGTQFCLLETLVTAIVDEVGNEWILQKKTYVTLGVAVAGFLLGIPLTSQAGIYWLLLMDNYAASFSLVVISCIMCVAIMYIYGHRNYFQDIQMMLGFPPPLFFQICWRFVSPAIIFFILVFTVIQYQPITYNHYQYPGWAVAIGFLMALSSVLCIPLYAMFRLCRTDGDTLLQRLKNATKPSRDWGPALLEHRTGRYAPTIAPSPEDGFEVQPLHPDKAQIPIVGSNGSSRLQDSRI
Format: cell-based
Experimental: A. [3H] Glycine Uptake Assay
Preparation of recombinant human GlyT1b-CHO cells (hGlyT1b-CHO). The human GlyT1b CDS (GC002087, NM_006934) was cloned downstream of a CMV promoter in a bicistronic expression vector containing a hygromycin B resistance gene. CHO-K1 cells (ATCC) were transfected with the recombinant vector containing GlyT1b using Lipofectamine 2000 (Invitrogen) and cultured in Ham's/F12 media supplemented with 10% fetal bovine serum, 2 mM L-glutamine at 37° C., 5% CO2, 90% humidity. Twenty-four hours after transfection, cells were diluted and switched to media containing 0.5 mg/ml hygromycin B. Antibiotic resistant cells were obtained after 21 days of culture in the presence of hygromycin B. Clonal stable cell lines were isolated by FACS single cell deposition into 96-well plates.
Cells used were Recombinant hGlyT1b/CHO. These cells were cultured in cell culture medium (Ham's/F12 (Modified) (Mediatech, 10-080-CM), containing 10% FBS, 2 mM L-glutamine (Invitrogen 25030-149) and 0.5 mg/mL hygromycin B (Invitrogen, 10687-010)) in 175 cm^2 flasks until near confluence before use in the assay.
Cell medium in a cell culture flask containing near confluent cells was removed and 5 mL of cell stripper was added to submerge all cells on the surface of the culture flask. Cell stripper was removed immediately and the flask incubated in a 37° C. incubator for ˜5 min. Cells were shaken loose and suspended in 5 mL of PBS. After splitting cells to initiate a new flask(s), the cells remaining were collected by centrifugation, counted, and resuspended in assay buffer to a density of ˜2 million/mL. The cell suspension was kept at room temperature before use. The assays buffer was 10 mM HEPES, pH 7.4, containing 150 mM NaCl, 5 mM KCl, 1.5 mM CaCl2, 1.5 mM MgCl2, 0.45 mg/mL L-alanine (added fresh), and 1.8 mg/mL D-glucose (added fresh).
WGA PTV beads were suspended in assay buffer (2 mg/ml) containing 60 nM [^3H]Glycine (PerkinElmer (NET-004, [2-^3H]Glycine, 53.3 Ci/mmol, 1 mCi/mL)) and 20 μM unlabeled glycine and the suspension was kept at room temperature before assay.
To the wells of an OptiPlate, 2 μl DMSO containing a test compound was spotted. This was followed by addition of 98 μl of cell suspension (˜1 million/ml final). After incubating cells with compound for ˜15 min, 100 μl of the SPA (200 μg/well final) and isotope mixture (30 nM isotope with 10 μM cold glycine, final) was added to initiate the glycine uptake. At 2 h, the plate was read on a TopCount to quantify SPA counts.
For CSc1ncccc1C(=O)NC(c1ccccc1)C12CCC(CC1)N2C (single isomer, unassigned) [Example 2, (R*)—N-((7-methyl-7-azabicyclo[2.2.1]heptan-1-y)(phenyl)methyl)-2-(methylthio)nicotinamide], the IC50 was 0.168 µM.
Work on COCCN1C2CCC1(C(NC(=O)c1c(C)cccc1C)c1ccncc1)CC2 (single isomer, unassigned) [Example 6, (R*)—N-((7-(2-methoxyethyl)-7-azabicyclo[2.2.1]heptan-1-yl)(pyridin-4-yl)methyl)-2,6-dimethylbenzamide] yielded an IC50 of 0.026 µM.
Molecule Cc1cccc(F)c1C(=O)NC(c1ccccc1)C12CCC(CC1)N2C (single isomer, unassigned) [Example 7, 2-fluoro-6-methyl-N-((7-methyl-7-azabicyclo[2.2.1]heptan-1-yl)(phenyl)methyl)benzamide] has an IC50 of 0.062 µM.
With CN1C2CCC1(C(NC(=O)c1cccc(Cl)c1Cl)c1ccccc1)CC2 (single isomer, unassigned) [Example 13, (R*)-2,3-dichloro-N-((7-methyl-7-azabicyclo[2.2.1]heptan-1-yl)(phenyl)methyl)benzamide] the IC50 was 0.072 µM.
For CN1C2CCC1([C@H](NC(=O)c1ccc(Cl)cc1Cl)c1ccccc1)CC2 (single isomer, unassigned) [Example 14, (R*)-2,4-dichloro-N((7-methy1-7-azabicyclo[2.2.1]heptan-1-yl)(phenyl)methyl)benzamide], the IC50 was 0.305 µM.
CN1C2CCC1(C(NC(=O)c1ccnc(Cl)c1Cl)c1ccccc1)CC2 (single isomer, unassigned) [Example 15, (R*)-2,3-dichloro-N-((7-methyl-7-azabicyclo[2.2.1]heptan-1-yl)(phenyl)methyl)isonicotinamide] showed an IC50 of 0.21 µM.
With Cc1cccc(C)c1C(=O)NC(c1cccc(Br)c1)C12CCC(CC1)N2C (stereo not shown) [Example 8, N-((3-bromophenyl)(7-methyl-7-azabicyclo[2.2.1]heptan-1-yl)methyl)-2,6-dimethylbenzamide] the IC50 was 0.003 µM.
Cc1ccc(C(NC(=O)c2c(C)cccc2C)C23CCC(CC2)N3C)o1 (stereo not shown) [Example 9, 2,6-dimethyl-N-((7-methyl-7-azabicyclo[2.2.1]heptan-1-yl)(5-methylfuran-2-yl)methyl)benzamide] was tested, and the IC50 was 0.098 µM.
CSc1ncccc1C(=O)NC(c1ccccc1)C12CCC(CC1)N2C (stereo not shown) [Example 10, N-((7-methyl-7-azabicyclo[2.2.1]heptan-1-yl)(phenyl)methyl)-2-(methylthio)nicotinamide] was tested, and the IC50 was 0.145 µM.
Work on COc1cccc(OC)c1C(=O)NC(c1ccccc1)C12CCC(CC1)N2C (stereo not shown) [Example 11, 2,6-dimethoxy-N-((7-methyl-7-azabicyclo[2.2.1]heptan-1-yl)(phenyl)methyl)benzamide] yielded an IC50 of 0.349 µM.
CN1C2CCC1(C(NC(=O)c1cccc(Cl)c1Cl)c1ccccc1)CC2 (stereo not shown) [Example 12, 2,3-dichloro-N-((7-methyl-7-azabicyclo[2.2.1]heptan-1-yl)(phenyl)methyl)benzamide] gave an IC50 of 0.0336 µM.
Work on Cc1c(C(=O)NC(c2ccccc2)C23CCC(CC2)N3C)cccc1C(F)(F)F (stereo not shown) [Example 16, 2-methyl-N-((7-methyl-7-azabicyclo[2.2.1]heptan-1-yl)(phenyl)methyl)-3-(trifluoromethyl)benzamide] yielded an IC50 of 0.0186 µM.
Work on CN1C2CCC1(C(NC(=O)c1cccc(C(F)(F)F)c1Cl)c1ccccc1)CC2 (stereo not shown) [Example 17, 2-chloro-N-((7-methyl-7-azabicyclo[2.2.1]heptan-1-yl)(phenyl)methyl)-3-(trifluoromethyl)benzamide] yielded an IC50 of 0.0179 µM.

Same assay, conditions: Table 2, unit from table title
For Cc1cccc(C)c1C(=O)NC(c1cccc(F)c1)C12CCC(CC1)N2C (single isomer, unassigned) [Example 45], the IC50 was 0.175 µM.
Cc1cccc(C)c1C(=O)NC(c1cccc(F)c1)C12CCC(CC1)N2C (single isomer, unassigned) [Example 46] gave an IC50 of 0.002 µM.
Molecule Cc1cccc(C)c1C(=O)NC(c1ccc(F)cc1)C12CCC(CC1)N2C (single isomer, unassigned) [Example 47] has an IC50 of 0.002 µM.
CSc1ncccc1C(=O)NC(c1ccccc1)C12CCC(CC1)N2C(C)C (single isomer, unassigned) [Example 53] was tested, and the IC50 was 0.024 µM.
CC(C)N1C2CCC1(C(NC(=O)c1c(Cl)cncc1Cl)c1ccccc1)CC2 (single isomer, unassigned) [Example 54] gave an IC50 of 0.1 µM.
Cc1ccccc1C(=O)NC(c1ccccc1)C12CCC(CC1)N2C (single isomer, unassigned) [Example 59] showed an IC50 of 0.038 µM.
With Cc1cc(F)ccc1C(=O)NC(c1ccccc1)C12CCC(CC1)N2C (single isomer, unassigned) [Example 62] the IC50 was 0.048 µM.
Work on Cc1c(F)cccc1C(=O)NC(c1ccccc1)C12CCC(CC1)N2C (single isomer, unassigned) [Example 63] yielded an IC50 of 0.076 µM.
Cc1ccc(F)cc1C(=O)NC(c1ccccc1)C12CCC(CC1)N2C (single isomer, unassigned) [Example 64] gave an IC50 of 0.125 µM.
With CCN1C2CCC1(C(NC(=O)c1cccnc1SC)c1ccccc1)CC2 (single isomer, unassigned) [Example 73] the IC50 was 0.046 µM.
Cc1cccc(C)c1C(=O)NC(c1cccnc1)C12CCC(CC1)N2C (single isomer, unassigned) [Example 74] gave an IC50 of under 0.003 µM.
Cc1cccc(C)c1C(=O)NC(c1cccc(F)c1)C12CCC(CC1)N2 (single isomer, unassigned) [Example 75] showed an IC50 of 0.007 µM.
For Cc1cccc(C)c1C(=O)NC(c1cccc(F)c1)C12CCC(CC1)N2 (single isomer, unassigned) [Example 76], the IC50 was 0.297 µM.
With Cc1ccc(C(NC(=O)c2c(C)cccc2C)C23CCC(CC2)N3C)cn1 (single isomer, unassigned) [Example 77] the IC50 was 0.071 µM.
Cc1cc(C(NC(=O)c2c(C)cccc2C)C23CCC(CC2)N3C)ccn1 (single isomer, unassigned) [Example 85] gave an IC50 of 0.023 µM.
Cc1ccc(C(NC(=O)c2c(C)cccc2C)C23CCC(CC2)N3C)o1 (single isomer, unassigned) [Example 87] showed an IC50 of 0.014 µM.
Cc1ccc(C(NC(=O)c2c(C)cccc2C)C23CCC(CC2)N3C)o1 (single isomer, unassigned) [Example 91] was tested, and the IC50 was 0.344 µM.
Molecule CSc1ncccc1C(=O)NC(c1ccncc1)C12CCC(CC1)N2C1CCC1 (single isomer, unassigned) [Example 101] has an IC50 of 0.16 µM.
CN1C2CCC1(C(NC(=O)c1cccc(C(F)(F)F)c1Cl)c1ccccc1)CC2 (stereo not shown) [Example 20] showed an IC50 of 0.026 µM.
Work on Cc1cccc(C)c1C(=O)NC(c1ccccc1)C12CCC(CC1)N2CC(C)C (stereo not shown) [Example 22] yielded an IC50 of 0.013 µM.
COCCN1C2CCC1([C@H](NC(=O)c1c(C)cccc1C)c1ccccc1)CC2 [Example 24] gave an IC50 of 0.022 µM.
Molecule Cc1cccc(C)c1C(=O)N[C@H](c1ccccc1)C12CCC(CC1)N2Cc1ccccc1 [Example 25] has an IC50 of 0.174 µM.
For Cc1cccc(C)c1C(=O)N[C@H](c1ccccc1)C12CCC(CC1)N2CC(C)C [Example 26], the IC50 was 0.021 µM.
Work on CCCCN1C2CCC1([C@H](NC(=O)c1c(C)cccc1C)c1ccccc1)CC2 [Example 27] yielded an IC50 of 0.011 µM.
Molecule COCCCN1C2CCC1([C@H](NC(=O)c1c(C)cccc1C)c1ccccc1)CC2 [Example 28] has an IC50 of 0.012 µM.
With Cc1cccc(C)c1C(=O)N[C@H](c1ccccc1)C12CCC(CC1)N2CC1CCC1 [Example 29] the IC50 was 0.009 µM.
Cc1cccc(C)c1C(=O)N[C@H](c1ccc(F)cc1)C12CCC(CC1)N2 [Example 30] gave an IC50 of 0.093 µM.
